# In patent US20210300932A1, “CYCLIC PEPTIDES TARGETING ALPHA-4-BETA-7 INTEGRIN” (Zealand Pharma A/S, priority 2015, published 2021):
# Key:
# [1] = system: DSS experimental model of ulcerative colitis; assay: 8-Day efficacy study in DSS model (therapeutic); type: in vivo, C57BI/6 mice; details: for reduction of lesion length vs vehicle group / reduction of DAI score on Day 8 vs DSS+vehicle: Day 5 to Day 8
# Text: The STDs in ascending order bracketing the study samples and dosing solutions • 1. The study samples • 2.
# Description of Tested Compounds
# (§1) Animals. Female C57BI/6 mice (Charles River, St-Constant, Qc), weighting 16-19 g at delivery were used for this study. Following arrival in the animal facility, all animals were subjected to a general health evaluation. An acclimation period of 7-14 days was allowed before the beginning of the study.
# Oral dosing of the test article and the vehicle. From Day 5 to Day 8, nacellins and the vehicle were administered as a single slow bolus (over approximately 5 seconds) via oral route (p.o.), according to the procedure of administration of solution by gavage: the animal was firmly restrained. A bulb-tipped gastric gavage needle of 22G was passed through the side of the mouth and was advanced towards the oesophagus. The test articles and the vehicle were dosed orally at 5 mL/kg.
# Intraperitoneal dosing of the test articles and the vehicle. On day 5, DATK32 antibody was administered in only on Day 5, as a single slow bolus (over approximately 5 seconds) via the i.p. route. […] Intraperitoneal administration was performed accordingly to the following procedure: the mouse was restrained manually and held with the head and body tilted downward. The tip of the needle (27 G) was inserted through the skin and just past the abdominal wall. A short pull back of the plunger of the syringe was done prior to administration of the solution to make sure that the syringe was not inserted in any abdominal organ (fluid would be pulled back into the syringe in this case).
# Inflammation Score. Once the mouse was euthanized, the colon was collected and its length was measured. Lesion length was also measured. Colon inflammation was scored based on severity of oedema and ulceration.
# Disease Activity Index (DAI) assessment. Body weight and DAI were measured on Day 5 in order to distribute DSS-treated animals in two uniform groups prior dosing. Specific symptoms associated to UC were scored based on the severity of each particular symptoms: 1—blood in stool (negative hemoccult, positive hemoccult, blood traces in stool visible, rectal bleeding); 2—stool consistency (normal, soft but still formed, very soft, diarrhea); 3—posture and fur (normal; ruffled fur; ruffled fur combined to slight hunched posture and slight dehydration; ruffled fur combined to hunched posture, dehydration and altered walking; moribund (euthanasia is mandatory before the animal reach this point). The overall DAI score was the sum of the three parameters (maximum score 9). Body weight measurement and DAI assessment were performed also on Day 8 to evaluate the effect of the treatments.
# Collection of samples. On Day 8, five hours after ET02451-01, ET02452-01 and vehicle dosing, the animals were euthanized by cardiac puncture under general anesthesia, according to the “Guide to the Care and Use of Experimental Animals” published by the CCAC. Blood was transferred in a Sarstedt tube containing EDTA. Mesenteric and peripheral (inguinal, auxiliary and brachial) lymph nodes were collected and transferred on ice in corresponding tubes containing cold PBS. Nodes were kept on ice until tissue preparation.
# Cell population labeling. Blood was withdrawn by cardiac puncture and collected on EDTA-coated tubes. Mensenteric lymph nodes (MLN) and peripheral lymph nodes (PLN) were also collected. Mononuclear cells from the tissues will be isolated using density gradient (Lympholyte) and they were stained with fluorescent antibodies. […] After washes, cells were fixed using BD Fix Solution. Percentage of different subpopulations of T lymphocytes were then analysed using FACSCalibur cytometer. Antibodies employed were the same as listed for the single-dose PD studies above.
# [2] = system: integrin alpha-4-beta-7-expressing T lymphocytes; assay: In vivo T lymphocyte trafficking analyses in DSS-treated mice; parameters: species or system C57BI/6 mice
# Procedure: In Vivo T Lymphocyte Trafficking Analyses
# as §1
# Administration of DSS. Dextran sulfate sodium (DSS) was administered to C57B1/6 mice through addition to their drinking water at 2-3%. Mice accessed the DSS-treated water ad libitum over a 5-day period. Body weight and disease activity index (“DAI”) were measured on Day 5 in order to distribute DSS-treated animals in two uniform groups prior to dosing. Specific symptoms associated with colitis were scored based on the severity of each particular symptoms: 1—blood in stool (negative hemoccult, positive hemoccult, blood traces in stool visible, rectal bleeding); 2—stool consistency (normal, soft but still formed, very soft, diarrhea); 3—posture and fur (normal; ruffled fur; ruffled fur combined to slight hunched posture and slight dehydration; ruffled fur combined to hunched posture, dehydration and altered walking; moribund (euthanasia is mandatory before the animal reach this point). The overall DAI score was the sum of the three parameters (maximum score of 9). DAI assessment was performed on Day 5 only (prior to dosing). […]
# [3] = Aqueous solubility assay; type: physicochemical; details: PBS pH 7.4, four hours, room temperature
# Procedure: Solutions were incubated for four hours at room temperature and stirred at 600 rpm and run in triplicate. Centrifugation was performed for 15 minutes at 6000 rpm and solution concentration was determined using HPLC-UV (photodiode array detector acquiring between 220 nm, and 300 nm wavelengths).
# [4] = in vitro; details: Control buffer/Buffer at 0.1 uM % Recovery
# Procedure: (§2) An equilibrium dialysis (HTDialysis) method was used employing 50% plasma collected from CD-1 mice or Sprague-Dawley rats and incubated with K2EDTA. Test articles were assessed at 1 microM concentration in three replicates. Incubation time as 5 hours and plasma and buffer standards were assessed using LC/MS/MS. Percentage recovery was calculated as (Cbuffer+Cplasma)/[average]Cinitial, [average]Cinitial being measured in triplicate from the test samples prior to dialysis. Percentage of compound unbound was calculated as Cbuffer/Cplasma.
# [5] = in vivo; details: male, CD-1, mouse, po, 48 mg/kg
# Procedure: In Vivo Pharmacokinetic Assessments in Rodents
# Oral bioavailability of test compounds was conducted by assessing plasma exposure of following one or two oral doses in mice and, in some cases, comparing said plasma exposure with that following a single intravenous dose of the same compound.
# Body weights were recorded on the day of dosing.
# Food restriction: Animals dosed p.o. were deprived of food overnight and fed ˜2 h following dosing.
# Dosing: The formulation containing the test compound were administered p.o. by gavage with disposable feeding needles.
# Sample collection: Terminal blood and tissue samples were collected under O2/CO2 anesthesia by cardiac puncture.
# Sample processing/storage: All blood samples were transferred into K2EDTA tubes on wet ice and centrifuged within 5 min (3200×g for 5 min at 4° C.) to obtain plasma. Samples were stored frozen at −80° C. until bioanalysis.
# Bioanalytical Method Qualification and Sample Analysis:
# Instrumentation: AB Sciex API 4000 Q-TRAP MS/MS system equipped with an Agilent LC system with a binary pump, a solvent degasser, a thermostatted column compartment, a CTC autosampler and a divert valve installed between the column and mass spectrometer inlet.
# [6] = system: plasma proteins; assay: Plasma protein binding determination, equilibrium dialysis, mouse plasma; details: CD-1, mouse, % recovery, Mouse plasma, equilibrium dialysis
# Procedure: as §2
# [7] = as above; details: first table
# Procedure: as §2
smiles,measurement,setting,value
CC(C)C[C@@H]1NC(=O)c2ccc(-c3ccnc4ccccc34)c(c2)CNC(=O)[C@@H]2CCCN2[C@H](C(=O)NC(C)(C)C)[C@H](C)NC(=O)[C@H]([C@@H](C)O)NC(=O)[C@H](CC(=O)O)NC1=O [Compound No. 341],reduction of lesion length vs vehicle group,[1]; 40 mg/kg p.o.,53%
same,reduction of DAI score on Day 8 vs DSS+vehicle,"[1]; 40 mg/kg p.o., b.i.d.",did not have any beneficial effect
same,CD3+CD4+α4β7+ cell population in mesenteric lymph nodes,[1]; 65 mg/kg i.p.,significant decrease
same,reduction of colon inflammation score vs vehicle,[1]; 65 mg/kg i.p.,39%
same,reduction of DAI score on Day 8 vs DSS+vehicle,[1]; 65 mg/kg i.p.,46%
same,reduction of lesion length vs vehicle group,[1]; 65 mg/kg i.p.,20%
CC(C)C[C@@H]1NC(=O)CN(C)C(=O)[C@H](Cc2ccc(O)cc2)NC(=O)[C@@H]2CCCN2[C@H](C(=O)NC(C)(C)C)[C@H](C)NC(=O)[C@H]([C@@H](C)O)NC(=O)[C@H](CC(=O)O)NC1=O [Compound No. 105],homing to the MLN,[2]; single oral dose 200 mg/kg,significant and robust attenuation of homing
CC(C)C[C@@H]1NC(=O)C2(CCCC2)NC(=O)[C@@H]2CCCN2[C@H](C(=O)NC(C)(C)C)[C@H](C)NC(=O)[C@H]([C@@H](C)O)NC(=O)[C@H](CC(=O)O)NC1=O [Compound No. 88],Determined Concentration Rep 3,[3],934.8 µM
CC(C)C[C@@H]1NC(=O)[C@H](Cc2ccccc2)NC(=O)[C@@H]2CCCN2[C@H](C(=O)NC(C)(C)C)[C@H](C)NC(=O)[C@H]([C@@H](C)O)NC(=O)[C@H](CC(=O)O)NC1=O [Compound No. 5],"recovery at 5 hours, 0.1 uM",[4],108%
same,Cmax,[5],~1600 ng/mL
same,homing to the MLN,[2]; single oral dose 100 mg/kg,significant reduction of homing
same,"recovery at 5 hours, 1 microM",[6]; first table,130%
same,"recovery at 5 hours, 1 microM",[6]; second table,97%
same,Control buffer/Buffer at 0.1 uM Cdonor/Creciever,[7],80%
CC(C)C[C@@H]1NC(=O)[C@@H](Cc2ccncc2)NC(=O)[C@@H]2CCCN2[C@H](C(=O)NC(C)(C)C)[C@H](C)NC(=O)[C@H]([C@@H](C)O)NC(=O)[C@H](CC(=O)O)NC1=O [Compound No. 62],Determined Concentration Rep 2,[3],988.2 µM
"CC(C)NCC(O)COc1cccc2ccccc12 (stereo not drawn) [Propranalol, propranolol, reference compound]",% unbound (Cbuffer/Cplasma) 1,"[7]; Mouse plasma, 1 microM, replicate 1",22.8%
CC(C)C[C@@H]1NC(=O)[C@@H](Cc2ccc(O)cc2)NC(=O)[C@@H]2CCCN2[C@H](C(=O)NC(C)(C)C)[C@H](C)NC(=O)[C@H]([C@@H](C)O)NC(=O)[C@H](CC(=O)O)NC1=O [Compound No. 42],Determined Concentration Rep 2,[3],960.0 µM
CC(C)C[C@@H]1NC(=O)[C@H](Cc2ccc(-c3ccccc3)cc2)NC(=O)[C@@H]2CCCN2[C@H](C(=O)NC(C)(C)C)[C@H](C)NC(=O)[C@H]([C@@H](C)O)NC(=O)[C@H](CC(=O)O)NC1=O [Compound No. 12],"recovery at 5 hours, 0.1 uM",[4],128%
same,"recovery at 5 hours, 1 microM",[6]; second table,89%
same,Control buffer/Buffer at 0.1 uM Cdonor/Creciever,[7],94%
CC(C)C[C@@H]1NC(=O)[C@H](Cc2c[nH]c3ccccc23)NC(=O)[C@@H]2CCCN2[C@H](C(=O)NC(C)(C)C)[C@H](C)NC(=O)[C@H]([C@@H](C)O)NC(=O)[C@H](CC(=O)O)NC1=O [ET00762],Control buffer/Buffer at 0.1 uM Cdonor/Creciever,[7],79%
